Results reported in PubChem BioAssay AID248 (DTP/NCI, 2004).
“And” between values parts separate entries of the source, which are not always exact repeats. Identical values can stand only once. Inconclusive results and toxic doses are left out. Cut-off read from the data, not from the text of the source: active = T/C of 150% or more; inactive = T/C below 125%.

System: L1210 leukemia ip in BDF1 mice, survival T/C
Test: NCI In Vivo Anticancer Drug Screen. Data for tumor model L1210 Leukemia (intraperitoneal) in B6D2F1 (BDF1) mice
Conditions: endpoint: mean survival time, higher = longer survival
In short: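 Antitumor effect is assessed in tumor-bearing animals. Survival in the compound arm is compared with a vehicle-dosed control arm and expressed as their quotient.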

[1] = dose: 75.0 mg/kg/injection, schedule: Q01DX001 (ip), vehicle: saline
[2] = dose: 150.0 mg/kg/injection, schedule: Q01DX001 (ip), vehicle: saline
[3] = dose: 100.0 mg/kg/injection, schedule: Q04DX003 (ip), vehicle: saline
[4] = dose: 100.0 mg/kg/injection, schedule: Q01DX009 (ip), vehicle: Klucel (hydroxypropylcellulose) (HPC)
[5] = dose: 100.0 mg/kg/injection, schedule: Q04DX002 (ip), vehicle: Klucel (hydroxypropylcellulose) (HPC)
[6] = dose: 200.0 mg/kg/injection, schedule: Q01DX009 (ip), vehicle: Klucel (hydroxypropylcellulose) (HPC)
[7] = dose: 400.0 mg/kg/injection, schedule: Q01DX009 (ip), vehicle: Klucel (hydroxypropylcellulose) (HPC)
[8] = dose: 400.0 mg/kg/injection, schedule: Q04DX002 (ip), vehicle: Klucel (hydroxypropylcellulose) (HPC)
[9] = dose: 100.0 mg/kg/injection, schedule: Q04DX003 (ip), vehicle: saline with Tween-80
[10] = dose: 200.0 mg/kg/injection, schedule: Q04DX003 (ip), vehicle: saline with Tween-80
[11] = dose: 100.0 mg/kg/injection, schedule: Q01DX001 (ip), vehicle: other
[12] = dose: 200.0 mg/kg/injection, schedule: Q01DX001 (ip), vehicle: other
[13] = dose: 400.0 mg/kg/injection, schedule: Q01DX001 (ip), vehicle: other
[14] = dose: 400.0 mg/kg/injection, schedule: Q04DX003 (ip), vehicle: saline with Tween-80
[15] = dose: 100.0 mg/kg/injection, schedule: Q04DX003 (ip), vehicle: Klucel (hydroxypropylcellulose) (HPC)
[16] = dose: 200.0 mg/kg/injection, schedule: Q04DX003 (ip), vehicle: Klucel (hydroxypropylcellulose) (HPC)
[17] = dose: 400.0 mg/kg/injection, schedule: Q04DX003 (ip), vehicle: Klucel (hydroxypropylcellulose) (HPC)
[18] = dose: 100.0 mg/kg/injection, schedule: Q01DX001 (ip), vehicle: carboxymethylcellulose (CMC)
[19] = dose: 200.0 mg/kg/injection, schedule: Q01DX001 (ip), vehicle: carboxymethylcellulose (CMC)
[20] = dose: 400.0 mg/kg/injection, schedule: Q01DX001 (ip), vehicle: carboxymethylcellulose (CMC)
[21] = dose: 100.0 mg/kg/injection, schedule: Q01DX001 (ip), vehicle: saline
[22] = dose: 400.0 mg/kg/injection, schedule: Q01DX001 (ip), vehicle: saline

Measured: T/C

C[N+](C)(C)C1CCCCC1
inactive: [1] 110 % of control and 106 % of control | [2] 105 % of control and 106 % of control

O=C(O)/C=C/c1ccccc1C(=O)O
inactive: [3] 100 % of control | dose: 200.0 mg/kg/injection, schedule: Q04DX003 (ip), vehicle: saline 91 % of control | dose: 400.0 mg/kg/injection, schedule: Q04DX003 (ip), vehicle: saline 103 % of control

CSc1ccc(NC(=O)C(Cl)Cl)cc1
inactive: [4] 95 % of control | [5] 97 % of control | [6] 105 % of control | [7] 101 % of control | [8] 93 % of control

CCCCC1C(=O)N2c3ccccc3-c3ccccc3N2C1=O
inactive: [1] 99 % of control | [2] 96 % of control | dose: 300.0 mg/kg/injection, schedule: Q01DX001 (ip), vehicle: saline 101 % of control

Cc1ccc([N+](=O)[O-])o1
inactive: [9] 91 % of control | [10] 87 % of control

O=S(=O)(NCCCl)c1ccc(Br)cc1
inactive: [11] 101 % of control | [9] 95 % of control | [12] 90 % of control | [10] 103 % of control | [13] 101 % of control | [14] 97 % of control

CCCCCCCCCCCOc1ccc(C=Nc2ccc(C)cc2)cc1
inactive: [15] 101 % of control | [16] 98 % of control | [17] 98 % of control

O=S(=O)(Cc1ccc(Cl)cc1Cl)Cc1ccc(Cl)cc1Cl
inactive: [15] 89 % of control | [16] 87 % of control | [17] 87 % of control

Oc1cccc2ccc(N/N=C/c3ccc4cccnc4c3O)nc12
inactive: [18] 93 % of control | [19] 102 % of control | [20] 93 % of control

CC(c1ccc(-c2ccccc2)cc1)C(Cl)c1ccccc1 (configuration not stated)
inactive: dose: 100.0 mg/kg/injection, schedule: Q01DX001 (ip), vehicle: saline with Tween-80 91 % of control | dose: 200.0 mg/kg/injection, schedule: Q01DX001 (ip), vehicle: saline with Tween-80 91 % of control | dose: 400.0 mg/kg/injection, schedule: Q01DX001 (ip), vehicle: saline with Tween-80 93 % of control

Cc1cc(Cl)ccc1NC(=O)Nc1ccc(Cl)c(Cl)c1
inactive: [15] 88 % of control | [16] 90 % of control | [17] 98 % of control and 88 % of control

Cc1ccc(S(=O)(=O)OCC2OC(n3cnc4c(=O)[nH]cnc43)C3OC(C)(C)OC23)cc1 (configuration not stated)
inactive: dose: 100.0 mg/kg/injection, schedule: Q01DX005 (ip), vehicle: saline 103 % of control | dose: 200.0 mg/kg/injection, schedule: Q01DX005 (ip), vehicle: saline 103 % of control

CCCCCCCCC(O)CC (configuration not stated)
inactive: [4] 93 % of control and 96 % of control | [15] 103 % of control | [6] 96 % of control | [16] 97 % of control | [7] 92 % of control and 105 % of control | [17] 97 % of control

O=C(O)CCC(=O)/C=C1/Nc2ccccc2C1=O
inactive: [9] 88 % of control | [10] 90 % of control | [14] 88 % of control

CCCCN(CCCC)CCSc1c(Cl)c(Cl)c(Cl)c(Cl)c1Cl
inactive: dose: 320.0 mg/kg/injection, schedule: Q01DX Z (ip), vehicle: saline 99 % of control | dose: 480.0 mg/kg/injection, schedule: Q01DX Z (ip), vehicle: saline 90 % of control

COc1ccc2c(c1)C13CCCC(C)(C(=O)NC1)C3CC2 (configuration not stated)
inactive: [18] 93 % of control | [19] 95 % of control | [20] 101 % of control

OCCN1CCC(CCCC2CCNCC2)CC1
inactive: dose: 10.0 mg/kg/injection, schedule: Q01DX Z (ip), vehicle: saline 97 % of control | dose: 25.0 mg/kg/injection, schedule: Q01DX009 (ip), vehicle: saline 102 % of control | dose: 25.0 mg/kg/injection, schedule: Q04DX003 (ip), vehicle: saline 111 % of control | dose: 30.0 mg/kg/injection, schedule: Q01DX Z (ip), vehicle: saline 102 % of control | dose: 50.0 mg/kg/injection, schedule: Q01DX009 (ip), vehicle: saline 96 % of control | dose: 50.0 mg/kg/injection, schedule: Q04DX003 (ip), vehicle: saline 98 % of control | dose: 100.0 mg/kg/injection, schedule: Q01DX009 (ip), vehicle: saline 91 % of control | [3] 108 % of control

CCCCNC(=O)c1cc(NC(=O)Nc2ccc(C3=NCCN3)cc2)cc(NC(=O)Nc2ccc(C3=NCCN3)cc2)c1
inactive: dose: 8.0 mg/kg/injection, schedule: Q01DX Z (ip), vehicle: carboxymethylcellulose (CMC) 122 % of control | dose: 16.0 mg/kg/injection, schedule: Q01DX Z (ip), vehicle: carboxymethylcellulose (CMC) 117 % of control | dose: 62.0 mg/kg/injection, schedule: Q01DX Z (ip), vehicle: carboxymethylcellulose (CMC) 122 % of control | dose: 125.0 mg/kg/injection, schedule: Q01DX Z (ip), vehicle: carboxymethylcellulose (CMC) 122 % of control | dose: 250.0 mg/kg/injection, schedule: Q01DX Z (ip), vehicle: carboxymethylcellulose (CMC) 110 % of control

COC(=O)C1=CO[C@@H](C)[C@@H]2Cn3ccc4c5ccccc5nc-4c3C[C@H]12
inactive: [21] 109 % of control | [22] 95 % of control

C=C(C)C1(Cc2ccccc2)C(=O)NC(=S)NC1=O
inactive: dose: 9.38 mg/kg/injection, schedule: Q01DX001 (ip), vehicle: saline 91 % of control | dose: 10.0 mg/kg/injection, schedule: Q01DX001 (ip), vehicle: saline 102 % of control

O=P(NCCO)(OCC(Br)CBr)OCC(Br)CBr (configuration not stated)
inactive: dose: 50.0 mg/kg/injection, schedule: Q01DX009 (ip), vehicle: saline with Tween-80 94 % of control | dose: 100.0 mg/kg/injection, schedule: Q01DX009 (ip), vehicle: saline with Tween-80 102 % of control | dose: 200.0 mg/kg/injection, schedule: Q01DX009 (ip), vehicle: saline with Tween-80 98 % of control

CCOC(=O)NC(NC(=O)OCC)c1ccco1
inactive: [11] 98 % of control | [12] 98 % of control | [13] 89 % of control

COc1ccc(Cl)cc1NS(=O)(=O)c1cccc([N+](=O)[O-])c1
inactive: [4] 96 % of control | [6] 98 % of control | [7] 91 % of control

CCOC(=O)C(CO)(CC(CO)(C(C)=O)C(=O)OCC)C(C)=O (configuration not stated)
inactive: dose: 222.0 mg/kg/injection, schedule: Q01DX Z (ip), vehicle: methylcellulose (MC) 98 % of control | dose: 333.0 mg/kg/injection, schedule: Q01DX Z (ip), vehicle: methylcellulose (MC) 110 % of control | dose: 500.0 mg/kg/injection, schedule: Q01DX Z (ip), vehicle: methylcellulose (MC) 108 % of control

Cc1ccc(/C(C#N)=C/c2cccc([N+](=O)[O-])c2)cc1
inactive: dose: 100.0 mg/kg/injection, schedule: Q04DX002 (ip), vehicle: saline with Tween-80 95 % of control | dose: 200.0 mg/kg/injection, schedule: Q04DX002 (ip), vehicle: saline with Tween-80 88 % of control | dose: 400.0 mg/kg/injection, schedule: Q04DX002 (ip), vehicle: saline with Tween-80 98 % of control

O=C1C2C3CCC(C4OCCO4)(O3)C2C(=O)N1Cc1ccccc1 (configuration not stated)
inactive: [5] 107 % of control | dose: 200.0 mg/kg/injection, schedule: Q04DX002 (ip), vehicle: Klucel (hydroxypropylcellulose) (HPC) 103 % of control | [8] 96 % of control

CCC(=O)OC1(c2ccccc2)CCN(CCC(=O)c2ccccc2)CC1
inactive: dose: 25.0 mg/kg/injection, schedule: Q04DX003 (ip), vehicle: Klucel (hydroxypropylcellulose) (HPC) 103 % of control | dose: 50.0 mg/kg/injection, schedule: Q04DX003 (ip), vehicle: Klucel (hydroxypropylcellulose) (HPC) 101 % of control | [15] 95 % of control and 98 % of control

CN=C1C2CCC(C2)CC1(O)c1ccccc1 (configuration not stated)
inactive: dose: 50.0 mg/kg/injection, schedule: Q01DX001 (ip), vehicle: saline 102 % of control | [21] 102 % of control

O=C(/C=C/c1ccc(O)cc1)c1ccc(Cl)cc1
inactive: [21] 98 % of control | dose: 200.0 mg/kg/injection, schedule: Q01DX001 (ip), vehicle: saline 87 % of control | [22] 90 % of control

O=CNc1ccccc1[N+](=O)[O-]
inactive: [9] 94 % of control | [10] 94 % of control
